Test results taken from patent EP0123217A1, “1-(4-(4-(Fluoralkylmethylthio or sulfinyl or sulfinyl-)phenoxy)phenyl)-1,3,5-triazine-2,4,6(1H-3H,5H)triones, process for their preparation and their use as agents against coccidiosis” (BAYER AG, priority 1983, dated 1984).
Structures can show the parent of a compound that is named as a salt.

Columns and labels:
[1] = system: E. maxima; assay: Coccidiosis in chicks, minimum effective dose (oocyst excretion, clinical symptoms, mortality); format: in vivo, Eimeria maxima
[2] = system: E. falciformis; assay: Coccidiosis in mice, minimum effective dose (oocyst excretion, clinical symptoms, mortality); format: in vivo, Eimeria falciformis; conditions: for minimal effective dose: Eimeria falciformis, mice (15 g), infected with 10,000 sporulated oocysts, treated on days 1, 2, 3, 6, 7 and 8 after infection, read-out: wirksame Mindestdosierung E. falciformis
Excerpt: Die coccidiostatische Aktivität von Verbindungen, die für die Verbindungen gemäß der Erfindung repräsentativ sind, wird in Tabelle 1 veranschaulicht, wo Eimeria tenella (Blinddarm-Coccidiose/Hühner), Eimeria acervulina und Eimeria maxima (Dünndarm-Coccidiose von Hühnern) als Beispiele der Aktivität im Falle der Coddidiose bei Geflügel genannt sind, während Eimeria falciformus (Coccidiose/Mäuse) als Coccidium bei Säugetieren angegeben ist.
Die Behandlung der Infektion mit Eimeria falciformis bei Mäusen, die als Beispiel der Coccidiose bei Säugetieren erwähnt ist, fand am ersten, zweiten, dritten, sechsten, siebten und achten Tag nach der Infektion statt. Die Infektion erfolgte mit.10,000 sporulierten Oozysten pro Maus (Gewicht 15 g). Im Falle der unbehandelten Vergleichstiere fanden massive Ausscheidung von Oozysten, blutiger Durchfall und 30 % Sterblichkeit der Tiere, die der Infektion zuzuschreiben waren, vom siebten Tage nach der Infektion an statt.
Als wirksam wurden diejenigen Dosen angesehen, die die Ausscheidung von Oozysten und/oder klinische Symptome der Coccidiose einschließlich der Mortalität vollständig oder in hohem Maße verhüteten.

[3] = system: E. acervulina; assay: Coccidiosis in chicks, minimum effective dose (oocyst excretion, clinical symptoms, mortality); format: in vivo, Eimeria acervulina
[4] = system: E. tenella; assay: as above; format: in vivo, Eimeria tenella
[5] = chicks 9 to 11 days old, infected with 4000 sporulated oocysts, compound given from 3 days before to 8 days after infection

Row | Structure (SMILES) | wirksame Mindestdosierung E. maxima ([1]; in vivo) | wirksame Mindestdosierung E. falciformis ([2]; in vivo) | wirksame Mindestdosierung E. acervulina ([3]; in vivo) | wirksame Mindestdosierung E. tenella ([4]; in vivo) | wirksame Mindestdosierung E. maxima [1, 5] | minimal effective dose [2] | wirksame Mindestdosierung E. acervulina [3, 5] | wirksame Mindestdosierung E. tenella [4, 5]
1 | CCC1(C2OC(C3OC(O)(CO)C(C)CC3C)CC2C)CCC(C2(C)CCC3(CC(O)C(C)C(C(C)C(OC)C(C)C(=O)O)O3)O2)O1 (centres unmarked) [M, reference compound] | 50 ppm | 250 mg/kg | 50 ppm | 75 ppm |  |  |  | 
2 | Cn1c(=O)[nH]c(=O)n(-c2cc(Cl)c(Oc3ccc(S(=O)(=O)CC(F)(F)F)cc3)c(Cl)c2)c1=O [[drawing] r5] |  |  |  |  | 10 ppm | 100 mg/kg | 10 ppm | 10 ppm
3 | Cn1c(=O)[nH]c(=O)n(-c2cc(Cl)c(Oc3ccc(SCC(F)(F)F)cc3)c(Cl)c2)c1=O [[drawing] r3] |  |  |  |  | 25 ppm | 1 mg/kg | 25 ppm | 50 ppm
4 | COc1cc(-n2c(=O)[nH]c(=O)n(C)c2=O)ccc1Oc1ccc(SCC(F)(F)F)cc1 [[drawing] r4] |  |  |  |  | 50 ppm | 25 mg/kg | 50 ppm | 50 ppm
5 | CCCc1ncc(C[n+]2ccccc2C)c(N)n1 [A, 1[(4-Amino-2-propyl-5-pyrimidinyl)-methyl]-2-picoliniumchloridhydrochlorid, reference compound] |  |  |  |  | 125 ppm | 500 mg/kg | 125 ppm | 125 ppm
